Results on five molecules are retold here after the supplement of paper PMC10307832.

For the first experiment, the system named is NCI-H522. Put plainly: relative viability (nuclei count vs DMSO), 5 days (fraction); higher = more cells survive. The conditions noted are these: first compound 2.53 µM. The essentials:
(§1)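 Lung cancer cell lines in 1536-well plates got either a single drug or a fixed anchor-drug dose together with five library-drug doses (not always all listed) in √10 steps, by pin tool, on the day after seeding. Nuclei were counted after 5 days, and relative viability is the treated-to-vehicle ratio of nuclei counts. Values are medians of duplicate plates.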
In turn, `CCCCCCCCCCCC1=C(O)C(=O)C=C(O)C1=O` [Embelin] + COc1cccc2cc(-c3nc([C@H]4CC[C@H](C(=O)O)CC4)n4ncnc(N)c34)[nH]c12 [OSI-027] (partner 0.5 µM) showed a relative viability of 0.752.
The molecule `CCCCCCCCCCCC1=C(O)C(=O)C=C(O)C1=O` [Embelin] + Nc1nc2[nH]cc(CCc3ccc(C(=O)N[C@@H](CCC(=O)O)C(=O)O)cc3)c2c(=O)[nH]1 [Pemetrexed] (partner 0.2 µM) displayed a relative viability of 0.957.

Still in this experiment, the particulars now being: first compound 8 µM.
The molecule `CCCCCCCCCCCC1=C(O)C(=O)C=C(O)C1=O` [Embelin] + N=C(N)NC(=N)NCCc1ccccc1 [Phenformin] (partner 250 µM) came in with a relative viability of 0.621.
In turn, `CCCCCCCCCCCC1=C(O)C(=O)C=C(O)C1=O` [Embelin] + CCNC(=O)c1noc(-c2cc(C(C)C)c(O)cc2O)c1-c1ccc(CN2CCOCC2)cc1 [Luminespib] (partner 0.01 µM) returned a relative viability of 1.12.
Regarding `CCCCCCCCCCCC1=C(O)C(=O)C=C(O)C1=O` [Embelin] + Cc1nc(Nc2ncc(C(=O)Nc3c(C)cccc3Cl)s2)cc(N2CCN(CCO)CC2)n1 [Dasatinib] (partner 0.075 µM), the relative viability is 0.859.
`CCCCCCCCCCCC1=C(O)C(=O)C=C(O)C1=O` [Embelin] + COc1cccc2cc(-c3nc([C@H]4CC[C@H](C(=O)O)CC4)n4ncnc(N)c34)[nH]c12 [OSI-027] (partner 0.5 µM) showed a relative viability of 0.641.
Regarding `CCCCCCCCCCCC1=C(O)C(=O)C=C(O)C1=O` [Embelin] + Nc1nc2[nH]cc(CCc3ccc(C(=O)N[C@@H](CCC(=O)O)C(=O)O)cc3)c2c(=O)[nH]1 [Pemetrexed] (partner 0.2 µM), the relative viability was 0.837.

A further experiment concerns NCI-H647. Described as above. As to conditions: first compound 0.08 µM. The method, boiled down: as §1
Molecule `CCCCCCCCCCCC1=C(O)C(=O)C=C(O)C1=O` [Embelin] + N=C(N)NC(=N)NCCc1ccccc1 [Phenformin] (partner 250 µM) came in with a relative viability of 0.632.
In turn, `CCCCCCCCCCCC1=C(O)C(=O)C=C(O)C1=O` [Embelin] + CCNC(=O)c1noc(-c2cc(C(C)C)c(O)cc2O)c1-c1ccc(CN2CCOCC2)cc1 [Luminespib] (partner 0.01 µM) returned a relative viability of 0.233.
The same measure, in the same setting: to `CCCCCCCCCCCC1=C(O)C(=O)C=C(O)C1=O` [Embelin] + Cc1nc(Nc2ncc(C(=O)Nc3c(C)cccc3Cl)s2)cc(N2CCN(CCO)CC2)n1 [Dasatinib] (partner 0.075 µM) belongs 0.214.
With `CCCCCCCCCCCC1=C(O)C(=O)C=C(O)C1=O` [Embelin] + COc1cccc2cc(-c3nc([C@H]4CC[C@H](C(=O)O)CC4)n4ncnc(N)c34)[nH]c12 [OSI-027] (partner 0.5 µM), the relative viability was found to be 0.684.
`CCCCCCCCCCCC1=C(O)C(=O)C=C(O)C1=O` [Embelin] + Nc1nc2[nH]cc(CCc3ccc(C(=O)N[C@@H](CCC(=O)O)C(=O)O)cc3)c2c(=O)[nH]1 [Pemetrexed] (partner 0.2 µM) came in with a relative viability of 0.19.

The same experiment, now with this note: first compound 0.8 µM.
Take `CCCCCCCCCCCC1=C(O)C(=O)C=C(O)C1=O` [Embelin] + N=C(N)NC(=N)NCCc1ccccc1 [Phenformin] (partner 250 µM): the relative viability came to 0.721.
Consider `CCCCCCCCCCCC1=C(O)C(=O)C=C(O)C1=O` [Embelin] + CCNC(=O)c1noc(-c2cc(C(C)C)c(O)cc2O)c1-c1ccc(CN2CCOCC2)cc1 [Luminespib] (partner 0.01 µM), for which the relative viability is 0.326.
Turning to `CCCCCCCCCCCC1=C(O)C(=O)C=C(O)C1=O` [Embelin] + Cc1nc(Nc2ncc(C(=O)Nc3c(C)cccc3Cl)s2)cc(N2CCN(CCO)CC2)n1 [Dasatinib] (partner 0.075 µM), the relative viability was 0.242.
`CCCCCCCCCCCC1=C(O)C(=O)C=C(O)C1=O` [Embelin] + COc1cccc2cc(-c3nc([C@H]4CC[C@H](C(=O)O)CC4)n4ncnc(N)c34)[nH]c12 [OSI-027] (partner 0.5 µM) yielded a relative viability of 0.72.
Take `CCCCCCCCCCCC1=C(O)C(=O)C=C(O)C1=O` [Embelin] + Nc1nc2[nH]cc(CCc3ccc(C(=O)N[C@@H](CCC(=O)O)C(=O)O)cc3)c2c(=O)[nH]1 [Pemetrexed] (partner 0.2 µM): the relative viability was found to be 0.246.

Staying with this experiment, now noted: first compound 2.53 µM.
Consider `CCCCCCCCCCCC1=C(O)C(=O)C=C(O)C1=O` [Embelin] + N=C(N)NC(=N)NCCc1ccccc1 [Phenformin] (partner 250 µM), for which the relative viability stood at 0.546.
Regarding `CCCCCCCCCCCC1=C(O)C(=O)C=C(O)C1=O` [Embelin] + CCNC(=O)c1noc(-c2cc(C(C)C)c(O)cc2O)c1-c1ccc(CN2CCOCC2)cc1 [Luminespib] (partner 0.01 µM), the relative viability is 0.138.
Same read-out and setting: to `CCCCCCCCCCCC1=C(O)C(=O)C=C(O)C1=O` [Embelin] + Cc1nc(Nc2ncc(C(=O)Nc3c(C)cccc3Cl)s2)cc(N2CCN(CCO)CC2)n1 [Dasatinib] (partner 0.075 µM) belongs 0.123; to `CCCCCCCCCCCC1=C(O)C(=O)C=C(O)C1=O` [Embelin] + COc1cccc2cc(-c3nc([C@H]4CC[C@H](C(=O)O)CC4)n4ncnc(N)c34)[nH]c12 [OSI-027] (partner 0.5 µM), 0.963; to `CCCCCCCCCCCC1=C(O)C(=O)C=C(O)C1=O` [Embelin] + Nc1nc2[nH]cc(CCc3ccc(C(=O)N[C@@H](CCC(=O)O)C(=O)O)cc3)c2c(=O)[nH]1 [Pemetrexed] (partner 0.2 µM), 0.169.

Staying with this experiment, now noted: first compound 8 µM.
Consider `CCCCCCCCCCCC1=C(O)C(=O)C=C(O)C1=O` [Embelin] + N=C(N)NC(=N)NCCc1ccccc1 [Phenformin] (partner 250 µM), for which the relative viability came to 0.472.
For `CCCCCCCCCCCC1=C(O)C(=O)C=C(O)C1=O` [Embelin] + CCNC(=O)c1noc(-c2cc(C(C)C)c(O)cc2O)c1-c1ccc(CN2CCOCC2)cc1 [Luminespib] (partner 0.01 µM), the relative viability stood at 0.132.
Same read-out and setting: to `CCCCCCCCCCCC1=C(O)C(=O)C=C(O)C1=O` [Embelin] + Cc1nc(Nc2ncc(C(=O)Nc3c(C)cccc3Cl)s2)cc(N2CCN(CCO)CC2)n1 [Dasatinib] (partner 0.075 µM) belongs 0.14.
As for `CCCCCCCCCCCC1=C(O)C(=O)C=C(O)C1=O` [Embelin] + COc1cccc2cc(-c3nc([C@H]4CC[C@H](C(=O)O)CC4)n4ncnc(N)c34)[nH]c12 [OSI-027] (partner 0.5 µM), the relative viability was 0.649.
In turn, `CCCCCCCCCCCC1=C(O)C(=O)C=C(O)C1=O` [Embelin] + Nc1nc2[nH]cc(CCc3ccc(C(=O)N[C@@H](CCC(=O)O)C(=O)O)cc3)c2c(=O)[nH]1 [Pemetrexed] (partner 0.2 µM) registered a relative viability of 0.214.

For another experiment, the system named is NCI-H727. The experiment is described as above. The conditions noted are these: first compound 0.08 µM. The essentials:
as §1
Regarding `CCCCCCCCCCCC1=C(O)C(=O)C=C(O)C1=O` [Embelin] + N=C(N)NC(=N)NCCc1ccccc1 [Phenformin] (partner 250 µM), the relative viability is 0.563.
For the molecule `CCCCCCCCCCCC1=C(O)C(=O)C=C(O)C1=O` [Embelin] + CCNC(=O)c1noc(-c2cc(C(C)C)c(O)cc2O)c1-c1ccc(CN2CCOCC2)cc1 [Luminespib] (partner 0.01 µM), the relative viability came to 0.317.
Same read-out and setting: to `CCCCCCCCCCCC1=C(O)C(=O)C=C(O)C1=O` [Embelin] + Cc1nc(Nc2ncc(C(=O)Nc3c(C)cccc3Cl)s2)cc(N2CCN(CCO)CC2)n1 [Dasatinib] (partner 0.075 µM) belongs 0.318.
